Measured values reported in patent US9737504B2, “Dihydroorotic and acid dehydrogenase inhibitor” (NAI INC., priority 2012, dated 2017).

Legend:
human DHOD [1] = target: T1, human DHOD (Homo sapiens, UniProt Q02127); test: Measurement of DHOD inhibitory activity (DCIP reduction, end point assay); type: biochemical; conditions: read-out: DHOD inhibition rate (%) 100 nM; 100 nM compound
human DHOD [2] = target: T1, human DHOD; test: as above; type: biochemical; conditions: for inhibition at 0.2 µM: read-out: DHOD inhibition rate (%) 200 nM, 200 nM compound; for IC50: read-out: IC50 (nM) human DHOD (HsDHOD)
Method: The compounds of the present invention were used and measured for their DHOD inhibitory activity at concentrations of 200 nM and 1000 nM.
Reduction of DCIP was measured at 600 nm over 20 minutes.

T1 sequence (Q02127 whole entry): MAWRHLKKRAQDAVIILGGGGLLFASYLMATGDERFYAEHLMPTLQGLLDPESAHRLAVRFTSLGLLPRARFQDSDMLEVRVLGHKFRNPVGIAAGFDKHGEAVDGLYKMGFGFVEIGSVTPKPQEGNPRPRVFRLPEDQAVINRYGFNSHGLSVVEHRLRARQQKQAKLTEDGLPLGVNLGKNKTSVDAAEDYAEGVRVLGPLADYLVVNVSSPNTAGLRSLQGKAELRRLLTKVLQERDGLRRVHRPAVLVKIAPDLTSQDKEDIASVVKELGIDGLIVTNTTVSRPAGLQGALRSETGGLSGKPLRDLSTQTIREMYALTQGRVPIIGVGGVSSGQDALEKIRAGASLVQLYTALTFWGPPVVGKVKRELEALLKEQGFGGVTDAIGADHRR

| melting point | inhibition at 0.1 µM (human DHOD [1]) | inhibition at 0.2 µM (human DHOD [2]) | IC50 (human DHOD [2]) | SMILES |
| --- | --- | --- | --- | --- |
| 71 °C |  |  |  | COC(=O)c1cc(Cl)c(O)c(C/C=C(\C)CCC=C(C)C)c1O |
|  | 87% | 57% | 146 ± 19 nM | C/C(=C\Cc1c(O)c(Cl)c(C)c(C=O)c1O)CC/C=C/COC(=O)C(C)(C)C [07-11-116-4] |
| 73 °C | 85% | 51% | 326 ± 41 nM | Cc1c(Cl)c(O)c(/C=C/CCCCCCOC(=O)C(C)C)c(O)c1C=O [200-12-OCOiPr, (E)-8-(3-Chloro-5-formyl-2,6-dihydroxy-4-methylphenyl)-7-octenyl isobutylate] |
| 57 to 58 °C |  |  |  | Cc1c(Cl)c(O)c(/C=C/CCCCCCOC(=O)C(C)(C)C)c(O)c1C=O [200-12-OPiv, (E)-8-(3-Chloro-5-formyl-2,6-dihydroxy-4-methylphenyl)-7-octenyl pivalate] |
| 72 to 73 °C |  |  |  | CCC(=O)OCCCCCCC/C=C/c1c(O)c(Cl)c(C)c(C=O)c1O [200-13-OCOEt, (E)-9-(3-Chloro-5-formyl-2,6-dihydroxy-4-methylphenyl)-8-nonenyl propionate] |
| 69 to 70 °C |  |  |  | Cc1c(Cl)c(O)c(/C=C/CCCCCCCOC(=O)C(C)(C)C)c(O)c1C=O [200-13-OPiv, (E)-9-(3-Chloro-5-formyl-2,6-dihydroxy-4-methylphenyl)-8-nonenyl pivalate] |
| 149 to 150 °C |  |  |  | Cc1c(Cl)c(O)c(CCCCCCCC(=O)O)c(O)c1C=O [215-9-COOH, 8-(3-Chloro-5-formyl-2,6-dihydroxy-4-methylphenyl)octanoic acid] |
| 129 to 130 °C |  |  |  | Cc1c(Cl)c(O)c(CCCCCCCCO)c(O)c1C=O [215-9-OH, 5-Chloro-2,4-dihydroxy-3-(8-hydroxyoctyl)-6-methylbenzaldehyde] |
| 63 to 64 °C |  |  |  | Cc1c(Cl)c(O)c(CCCCCCCOC(=O)C(C)(C)C)c(O)c1C=O [215-11-OPiv, 7-(3-Chloro-5-formyl-2,6-dihydroxy-4-methylphenyl)heptyl pivalate] |
| 87 to 88 °C |  |  |  | COC(=O)CCCCCCCCCc1c(O)c(Cl)c(C)c(C=O)c1O [215-12-COOMe, Methyl 10-(3-chloro-5-formyl-2,6-dihydroxy-4-methylphenyl)decanate] |
| 63 to 64 °C |  |  |  | CCC(=O)OCCCCCCCCc1c(O)c(Cl)c(C)c(C=O)c1O [215-12-OCOEt, 8-(3-Chloro-5-formyl-2,6-dihydroxy-4-methylphenyl)octyl propionate] |
| 70 to 71 °C |  |  |  | Cc1c(Cl)c(O)c(CCCCCCCCOC(=O)C(C)(C)C)c(O)c1C=O [215-12-OPiv, 8-(3-Chloro-5-formyl-2,6-dihydroxy-4-methylphenyl)octyl pivalate] |
| 130 to 131 °C |  |  |  | Cc1c(Cl)c(O)c(CCCCCCCCCCCC(=O)O)c(O)c1C=O [215-13-COOH, 12-(3-Chloro-5-formyl-2,6-dihydroxy-4-methylphenyl)dodecanoic acid] |
| 49 °C |  |  |  | Cc1c(Cl)c(O)c(CCCCCCCCCC(=O)OC(C)C)c(O)c1C=O [215-13-COO^IPr, Isopropyl 10-(3-chloro-2,6-dihydroxy-5-formyl-4-methylphenyl)decanate] |
| 62 °C |  |  |  | Cc1c(Cl)c(O)c(CCCCCCCCCOC(=O)C(C)(C)C)c(O)c1C=O [215-13-OPiv, 9-(3-Chloro-5-formyl-2,6-dihydroxy-4-methylphenyl)nonyl pivalate] |
| 82 to 83 °C |  |  |  | Cc1c(Cl)c(O)c(CCCCCCCCCCCC(=O)OC(C)C)c(O)c1C=O [215-15-COO^IPr, Isopropyl 12-(3-chloro-5-formyl-2,6-dihydroxy-4-methylphenyl)dodecanate] |
|  | 98% | 75% | 67 ± 7 nM | COC(C)(C)CCC/C(C)=C/Cc1c(O)c(Cl)c(C)c(C=O)c1O [231-9-OMe, 3-Chloro-4,6-dihydroxy-5-[(E)-7-methoxy-3,7-dimethyl-2-octeny]-2-methyl benzaldehyde] |
|  | 102% | 72% | 98 ± 5 nM | C/C(=C\Cc1c(O)c(Cl)c(C)c(C=O)c1O)CC/C=C(\C)COC(=O)C(C)(C)C [234-12-OPiv, (2E,6E)-8-(3-Chloro-5-formyl-2,6-dihydroxy-4-methylphenyl)-2,6-dimethyl-2,6-octadienyl pivalate] |
| 99 to 99.7 °C | 103% | 82% | 44 ± 5 nM | C/C(=C\CC/C(C)=C/Cc1c(O)c(Cl)c(C)c(C=O)c1O)CO [236-9-OH, 3-Chloro-4,6-dihydroxy-5-(2E,6E)-8-hydroxy-3,7-dimethyl-2,6-octadienyl-2-methylbenzaldehyde] |

| melting point | inhibition at 0.1 µM (human DHOD [1]) | inhibition at 0.2 µM (human DHOD [2]) | IC50 (human DHOD [2]) | SMILES |
| --- | --- | --- | --- | --- |
| 35 to 36 °C | 97% | 86% | 33 ± 3 nM | C/C(=C\Cc1c(O)c(Cl)c(C)c(C=O)c1O)CC/C=C(\C)COC1CCCO1 (stereo not drawn) [236-12-OTHF, 3-Chloro-5-(2E,6E)-3,7-dimethyl-8-(tetrahydrofuran-2-yloxy)-2,6-octadienyl-4,6-dihydroxy-2-methylbenzaldehyde] |
|  | 90% | 74% | 71 ± 2 nM | CCCCC/C(C)=C/Cc1c(O)c(Cl)c(C)c(C=O)c1O [264-8, (E)-3-Chloro-4,6-dihydroxy-2-methyl-5-(3-methyl-2-octenyl)benzaldehyde] |
|  | 94% | 58% | 123 ± 18 nM | C/C(=C\Cc1c(O)c(Cl)c(C)c(C=O)c1O)CCCCOC(=O)C(C)(C)C [264-11-OPiv, (5E)-7-(3-Chloro-5-formyl-2,6-dihydroxy-4-methylphenyl)-5-methyl-5-heptenyl pivalate] |
| 65 to 67 °C |  |  |  | CCCCCC(C)CCc1c(O)c(Cl)c(C)c(C=O)c1O (stereo not drawn) [265-8, 3-Chloro-4,6-dihydroxy-2-methyl-5-(3-methyloctyl)benzaldehyde] |
|  | 95% | 76% | 60 ± 21 nM | COC(CC(=O)C(C)(C)C)/C(C)=C/CC/C(C)=C/Cc1c(O)c(Cl)c(C)c(C=O)c1O (stereo not drawn) [271-12, 3-Chloro-4,6-dihydroxy-2-methyl-5-(2E,6E)-(8-methoxy-3,7,11,11-tetramethyl-10-oxo-2,6-dodecadienyl)benzaldehyde] |
| 111.2 to 111.4 °C | 98% | 90% | 31 ± 3 nM | C/C(C=O)=C\CC/C(C)=C/Cc1c(O)c(Cl)c(C)c(C=O)c1O [274-9, 3-Chloro-5-[(2E,6E)-3,7-dimethyl-8-oxo-2,6-octadienyl]-4,6-dihydroxy-2-methylbenzaldehyde] |
| 119 to 120 °C | 96% | 87% | 24 ± 3 nM | CC(=O)/C(C)=C/CC/C(C)=C/Cc1c(O)c(Cl)c(C)c(C=O)c1O [276-9] |
| 93 to 94 °C |  |  |  | Cc1c(Cl)c(O)c(CCCCCCC(C)C)c(O)c1C=O [279-8, 3-Chloro-4,6-dihydroxy-2-methyl-5-(7-methyloctyl)benzaldehyde] |
| 36 to 37 °C | 100% | 79% | 50 ± 5 nM | C/C(=C\Cc1c(O)c(Cl)c(C)c(C=O)c1O)CC/C=C(\C)CCC1OC1(C)C (stereo not drawn) [281-12, 3-Chloro-5-(2E,6E)-3,7-dimethyl-9-(3,3-dimethyloxiran-2-yl)-2,6-nonadienyl-4,6-dihydroxy-2-methylbenzaldehyde] |
|  | 104% | 82% | 67 ± 3 nM | C/C(=C\COC(=O)C(C)(C)C)CC/C(C)=C/Cc1c(O)c(Cl)c(C)c(C=O)c1O [287-12-OPiv, (2E,6E)-8-(3-Chloro-5-formyl-2,6-dihydroxy-4-methylphenyl)-3,6-dimethyl-2,6-octadienyl pivalate] |
| 35 to 36 °C |  |  |  | C/C(=C\Cc1c(O)c(Cl)c(C)c(C=O)c1O)CC/C=C(\C)C1OC(C)C(C)O1 (stereo not drawn) [509-11, 3-Chloro-5-((2E,6E)-7-(4,5-dimethyl-1,3-dioxolan-2-yl)-3-methyl-2,6-octadienyl)-4,6-dihydroxy-2-methylbenzaldehyde] |
|  | 100% | 69% | 1050 ± 214 nM | CC(C)=CCC/C(C)=C/Cc1c(O)c(Cl)c(C)c(C=O)c1O [CC-B, (E)-3-Chloro-4,6-dihydroxy-5-(3,7-dimethyl-2,6-octadienyl)-2-methylbenzaldehyde] |
| 46 to 47 °C |  |  |  | COC(=O)c1c(C)cc(O)c(C/C=C(\C)CCC=C(C)C)c1O [compound 146, Methyl (E)-3-(3,7-dimethyl-2,6-octadienyl)-2,4-dihydroxy-6-methylbenzoate] |
| 62 °C |  |  |  | COC(=O)c1ccc(O)c(C/C=C(\C)CCC=C(C)C)c1O [compound 161, Methyl (E)-3-(3,7-dimethyl-2,6-octadienyl)-2,4-dihydroxybenzoate] |
| 70 to 72 °C |  |  |  | C/C(=C\Cc1c(O)c(Cl)cc(C=O)c1O)CC/C=C(\C)C1CC(=O)C(C)(C)O1 (stereo not drawn) [compound 209, 5-Chloro-2,4-dihydroxy-3-[(2E,6E)-7-(5,5-dimethyl-4-oxotetrahydrofuran-2-yl)-3,7-dimethyl-2,6-heptadienyl]benzaldehyde] |
| 120 to 121 °C |  |  |  | CC(C)=CCC/C(C)=C/Cc1c(O)cc(C)c(C=O)c1O [compound 216, (E)-2,4-Dihydroxy-3-(3,7-dimethyl-2,6-octadienyl)-6-methylbenzaldehyde] |
| 85 °C |  |  |  | CC(C)=CCC/C(C)=C/Cc1c(O)ccc(C=O)c1O [compound 217, (E)-2,4-Dihydroxy-3-(3,7-dimethyl-2,6-octadienyl)benzaldehyde] |
| 94 to 95 °C |  |  |  | CC(C)=CCC/C(C)=C/Cc1c(O)c(Cl)cc(C=O)c1O [compound 224, (E)-5-Chloro-2,4-dihydroxy-3-(3,7-dimethyl-2,6-octadienyl)benzaldehyde] |
| 70 to 71 °C |  |  |  | Cc1c(Cl)c(O)c(CCCCCCCC2CC(=O)C(C)(C)O2)c(O)c1C=O (stereo not drawn) [compound 250, 5-Chloro-2,4-dihydroxy-6-methyl-3-[7-(3,3-dimethyl-4-oxo-2-oxacyclopentyl)heptyl]benzaldehyde] |
